According to US20230372529A1, “MITOCHONDRIA COMPRISING ANTICANCER DRUG AND USE THEREOF” (Paean Biotechnology Inc., priority 2020, published 2023):
Blank lines part the entries; values can stand above or below the molecule they belong to.

Legend:
[1] = tested on: human lung fibroblast cell lines WI-38 and CCD-8Lu; assay: proliferation inhibition in normal cells for each concentration, WST-1 assay (DOX series); assay type: cell-based; conditions: 0.01 to 2 μM, 144 hours
Procedure: 200 μg of MT^α-HER2scFv and 100 μM doxorubicin (DOX) were reacted in the same manner as in Preparation Example 2 above. In order to confirm the influence of the obtained DOX_MT^α-HER2scFv on cell proliferation in normal cells, the cell proliferation inhibitory effect by treatment with DOX_MT^α-HER2scFv in human lung fibroblasts was evaluated.
(§1) Specifically, the human lung fibroblast cell lines WI-38 and CCD-8Lu were inoculated into a 96-well plate at about 3×10^3 cells/well, respectively, and cultured for 24 hours. At this time, WI-38 and CCD-8Lu were cultured in DMEM medium containing 10% FBS. After culturing for 24 hours, each cell was treated with doxorubicin (DOX) or DOX_MT^α-HER2scFv at a concentration of 2 μM, 1 μM, 0.5 μM, 0.25 μM, 0.1 μM, 0.05 μM, 0.025 μM, and 0.01 μM. After 144 hours of sample treatment, cell proliferation was measured by WST-1 assay.

[2] = tested on: lung fibroblast cell line (CCD-8Lu and WI-38); assay: proliferation inhibition at the same concentration, WST-1 assay, normal cells (DOX series); assay type: cell-based; conditions: Homo sapiens, 144 hours, read-out: cell proliferation inhibitory effect compared to the untreated group, normal cells
Procedure: (§2) 200 μg of MT^α-HER2scFv and 100 μM doxorubicin (DOX) were reacted in the same manner as in Preparation Example 2 above. In order to compare the influence of the obtained DOX_MT^α-HER2scFv on cell proliferation in cancer cells and normal cells, after treatment with DOX_MT^α-HER2scFv at the same concentration in the human breast cancer, lung cancer, gastric cancer cell lines and the lung fibroblast cell line, the cell proliferation inhibitory ability was measured.
(§3) Specifically, the human breast cancer (SK-BR-3, BT-474 and MDA-MB-231), lung cancer (NCI-H1975), gastric cancer (MKN-74 and NCI-N87) cell lines and the lung fibroblast cell line (CCD-8Lu and WI-38) were inoculated into a 96-well plate at about 3×10^3 cells/well, respectively, and cultured for 24 hours. At this time, SK-BR-3, BT-474 and NCI-N87 cells were cultured in RPMI-1640 medium containing 10% FBS. MDA-MB-231, NCI-H1975, MKN-74, CCD-8Lu, and WI-38 cells were cultured in DMEM medium containing 10% FBS. After culturing for 24 hours, the cells were treated with 0.5 μM doxorubicin (DOX) or DOX_MT^α-HER2scFv respectively, and after 144 hours, the cell proliferation inhibitory ability was evaluated by WST-1 assay. […] Statistical processing was performed using Graphpad 5.0 software, and p values were measured with one-way ANOVA (Turkey's) test (*p<0.05, **p<0.01, and ***p<0.001).

[3] = tested on: mouse melanoma cell line B16F10 overexpressing human HER2, allograft; assay: anticancer activity of DOX_MT^α-HER2scFv in allograft tumor animal model; assay type: in vivo; conditions: MT^α-HER2scFv 20 μg, DOX 4 μg, DOX_MT^α-HER2scFv 4 μg/20 μg, intravenously 3 times a week for 3 weeks
Source text: 7-week-old C57BL/6 female mice (Samtako Bio Korea) were acclimatized for 1 week, and then the mouse melanoma cell line B16F10 was subcutaneously transplanted into the lateral abdomen of the mice at about 5×10^5 cells/mouse to construct an allograft tumor mouse. At this time, B16F10 cells in which the human HER2 gene was overexpressed using lentivirus were used as B16F10 cells. When the average volume of the tumor reached 100˜200 mm^3, the mice were divided into 4 groups of 3 mice per test group, and MT^α-HER2scFv (20 μg), DOX (4 μg) or DOX_MT^α-HER2scFv (TPP-DOX/MT: 4 μg/20 μg) was intravenously administered 3 times a week for 3 weeks. The tumor size was measured 3 times a week, and after the end of the experiment (after 3 weeks from the start of administration), the tumor tissues of the mice were extracted, and the size and weight were measured (FIG. 73).

[4] = tested on: SK-BR-3, BT-474, MDA-MB-231, NCI-H1975, NCI-N87 and MKN-74; assay: cancer cell proliferation inhibition for each concentration, WST-1 assay (DOX series); assay type: cell-based, human; conditions: 0.01 to 2 μM, 144 hours, versus untreated group (NC)
Procedure: as §1, with “human breast cancer (SK-BR-3, BT-474 and MDA-MB-231),” for “human”, “cancer (NCI-H1975) and gastric cancer (NCI-N87 and MKN-74)” for “fibroblast”, “lines” for “lines WI-38 and CCD-8Lu”, “SK-BR-3, BT-474” for “WI-38”, “NCI-N87 cells were cultured in RPMI-1640 medium containing 10% FBS, and MDA-MB-231, NCI-H1975 and MKN-74 cells” for “CCD-8Lu”

[5] = tested on: SK-BR-3, BT-474, MDA-MB-231, NCI-H1975, MKN-74 and NCI-N87; assay: proliferation inhibition at the same concentration, WST-1 assay, cancer cells (DOX series); assay type: cell-based; conditions: Homo sapiens, 144 hours, read-out: cell proliferation inhibitory effect compared to the untreated group, cancer cells
Procedure: as §2, §3

[6] = tested on: SK-BR-3, BT-474, MDA-MB-231, NCI-H1975, NCI-N87 and MKN-74; assay: cancer cell proliferation inhibition for each concentration, WST-1 assay (TPP-DOX series); assay type: cell-based, human; conditions: 0.01 to 2 μM, 144 hours, versus untreated group (NC)
Procedure: After culturing for 24 hours, each cell was treated with TPP-DOX or TPP-DOX_MT^α-HER2scFv at a concentration of 2 μM, 1 μM, 0.5 μM, 0.25 μM, 0.1 μM, 0.05 μM, 0.025 μM and 0.01 μM. […] At this time, the mitochondria-only treated group (MT, MT^α-HER2scFv) was used as a negative control for TPP-DOX MT^α-HER2scFv.

[7] = tested on: HER2^+ human gastric cancer cell line NCI-N87 xenograft; assay: anticancer activity in NCI-N87 xenograft tumor mouse model; assay type: in vivo; conditions: 4 μg intravenously
Procedure: 5-week-old BALB/c male nude mice (initial body weight of 18˜20 g) (Nara Biotech) were acclimatized for 1 week, and then HER2^+ human gastric cancer cell line NCI-N87 was subcutaneously transplanted into the lateral abdomen at 1×10^7 cells/mouse to construct a xenograft tumor model mouse. […] The tumor size was measured at an interval of 2˜4 days, and after 25 days from the start of administration, the tumor tissues were extracted, and the size and weight were measured (FIG. 65).

[8] = tested on: human lung fibroblast cell lines WI-38 and CCD-8Lu; assay: proliferation inhibition in normal cells for each concentration, WST-1 assay (TPP-DOX series); assay type: cell-based; conditions: 0.01 to 2 μM, 144 hours
Procedure: Specifically, the human lung fibroblast cell lines WI-38 and CCD-8Lu were inoculated into a 96-well plate at about 3×10^3 cells/well, respectively, and cultured for 24 hours. At this time, WI-38 and CCD-8Lu were cultured in DMEM medium containing 10% FBS. After culturing for 24 hours, each cell was treated with TPP-DOX or TPP-DOX_MT^α-HER2scFv at a concentration of 2 μM, 1 μM, 0.5 μM, 0.25 μM, 0.1 μM, 0.05 μM, 0.025 μM and 0.01 μM. […] At this time, the mitochondria-only treated group (MT, MT^α-HER2scFv) was used as a negative control for TPP-DOX MT^α-HER2scFv.

[9] = tested on: mouse melanoma cell line B16F10 overexpressing human HER2, allograft; assay: anticancer activity of TPP-DOX_MT^α-HER2scFv in allograft tumor mouse model; assay type: in vivo; conditions: MT^α-HER2scFv 20 μg, TPP-DOX 5 μg, TPP-DOX/MT 5 μg/20 μg, intravenously 3 times a week for 3 weeks
Procedure: 7-week-old C57BL/6 female mice (Samtako Bio Korea) were acclimatized for 1 week, and then the mouse melanoma cell line B16F10 was subcutaneously transplanted into the lateral abdomen of the mice at about 5×10^5 cells/mouse to construct an allograft tumor mouse. […] When the average volume of the tumor reached 100˜200 mm^3, the mice were divided into 4 groups of 3 mice per test group, and MT^α-HER2scFv (20 μg), TPP-DOX (5 μg) or TPP-DOX_MT^α-HER2scFv (TPP-DOX/MT: 5 μg/20 μg) was intravenously administered 3 times a week for 3 weeks. The tumor size was measured 3 times a week, and after the end of the experiment (after 3 weeks from the start of administration), the tumor tissues of the mice were extracted, and the size and weight were measured (FIG. 69).

[10] = tested on: lung fibroblast cell line (CCD-8Lu and WI-38); assay: proliferation inhibition at the same concentration, WST-1 assay, normal cells (TPP-DOX series); assay type: cell-based, human; conditions: 0.5 μM, 144 hours
Procedure: At this time, the mitochondria-only treated group (MT^α-HER2scFv) was used as a negative control for TPP-DOX_MT^α-HER2scFv. Statistical processing was performed using Graphpad 5.0 software, and p values were measured with one-way ANOVA (Turkey's) test (*p<0.05, **p<0.01 and ***p<0.001).

PDL1 = target: T1, PDL1 (human, UniProt Q9NZQ7 19-290); assay: confocal microscopy, MitoTracker Red-stained scFv-fused mitochondria on co-cultured BXPC-3 (PDL1+) and CFPAC-1 (PDL1-) cells
T1 construct: whole, on cells; also called PDL1 antigen
Procedure: Mitochondria to be used as samples were prepared by treating untreated HEK293 cells (MT) and HEK293 cells comprising mitochondria fused with an anti-PDL1scFv antibody (MT^{α-PDL1scFv}) with MitoTracker Red to stain the mitochondria, and then isolating the mitochondria. After co-culture for 24 hours, each isolated mitochondrion was treated with the co-cultured cells and reacted for 24 hours (FIG. 47).
The cells treated in the same manner as in Example 4 above were washed once with PBS, and fixed by adding 3.7% formaldehyde at room temperature for 30 minutes, and then immunocytochemistry staining was performed. At this time, an anti-PDL1 antibody (Cell signaling, 86744) was used as a primary antibody, and Alexa Fluor 488 goat anti-rabbit IgG (H+L) was used as a secondary antibody. The nuclei of the cells were observed by staining with DAPI.

T1 sequence (Q9NZQ7 19-290): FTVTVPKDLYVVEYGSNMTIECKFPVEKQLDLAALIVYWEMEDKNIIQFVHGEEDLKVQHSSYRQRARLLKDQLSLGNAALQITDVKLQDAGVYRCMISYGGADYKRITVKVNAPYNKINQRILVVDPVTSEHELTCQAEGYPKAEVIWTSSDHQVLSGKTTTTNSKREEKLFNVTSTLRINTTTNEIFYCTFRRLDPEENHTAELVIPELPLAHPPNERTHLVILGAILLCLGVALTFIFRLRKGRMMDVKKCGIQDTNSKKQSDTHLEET

Molecule: COc1cccc2c1C(=O)c1c(O)c3c(c(O)c1C2=O)C[C@@](O)(C(=O)CO)C[C@@H]3O[C@H]1C[C@H](N)[C@H](O)[C@H](C)O1 [DOX, doxorubicin]
cell proliferation inhibitory ability in normal cells [1]: weaker than that of cancer cells | inhibition at 0.5 µM [2]: ≤ 25% | tumor size compared to the control group (CTR) [3]: significantly reduced | cell proliferation inhibitory effect [4]: inhibited in a concentration-dependent manner | inhibition at 0.5 µM [5]: 50 to 80%

Molecule: triphenylphosphonium (TPP)-doxorubicin [TPP-DOX]
cell proliferation inhibitory effect [6]: inhibited in a concentration-dependent manner | tumor size by date compared to the control group (CTR) [7]: similar | cell proliferation inhibitory ability in normal cells [8]: weaker than that of cancer cells | tumor size compared to the control group (CTR) [9]: similar | proliferation inhibitory ability, normal cells [10]: weak

binding result (PDL1): binds
B1: anti-PDL1scFv antibody fused to the mitochondrial outer membrane (scFvPDL1-myc-TOM7) (scFv)
scFv: MDIVMSQSPSSLAVSAGEKVTMSCKSSQSLLNSRTRKNYLAWYQQKPGQSPKLLIYWASTRESGVPDRFTGSGSGTDFTLTISSVQAEDLAVYYCQQSYDVVTFGAGTKLELKGGGGSGGGGSGGGGSQVQVQQSGAELAEPGASVKMSCKASGYIFTSYWMHWLKQRPGQGLEWIGYINPSSDYNEYSEKFMDKATLTADKASTTAYMQLISLTSEDSAVYYCARSGWLVHGDYYFDYWGQGTTLTVSSEQKLISEEDLVKLSKEAKQRLQQLFKGSQFAIRWGFIPLVIYLGFKRGADPGMPEPTVLSLLWG
notes: In the assay the fusion protein was anchored on the outer membrane of mitochondria isolated from HEK293 cells (MT^α-PDL1scFv); also called MT^α-PDL1scFv; single chain variable region fragment of an anti-PDL1 antibody
